Target: PDE4B (Homo sapiens, UniProt Q07343)
Test: Scintillation Proximity Assay (SPA) of PDE4B enzyme activity ([H3]-cAMP cleavage)
Format: biochemical
Conditions: test substance 1 μM; one-hour incubation of [H3]-cAMP with PDE4B enzyme at 30° C.
Protocol: The inhibitions (in %) at 1 μM of the individual Example substances are given in the following Table of Examples and were determined as follows:
The Scintillation Proximity Assay (SPA) (GE Healthcare, No. TRKQ7090) was carried out by using the different affinities of cyclic 3′-5′-adenosinemonophosphate (cAMP, low affinity) and linear 5′-adenosinemonophosphate (AMP, high affinity) for yttrium silicate scintillator beads. The cAMP specific phosphodiesterase (PDE) PDE4B cleaves the 3′-phosphoester bond of tritium-labelled [H3]-cAMP to form [H3]-5′-AMP. This [H3]-AMP accumulates on the scintillator beads because of its higher affinity for them and causes scintillation events (flashes of light) which are measured in a Wallac Microbeta Scintillation Counter.
The experiment starts with a one-hour incubation of [H3]-cAMP with the PDE4B enzyme in assay buffer at 30° C., in each case once with the Example substance to be tested (in a concentration of 1 μM) and once without the Example substance to be tested.
After this incubation, the reaction is stopped by the addition of the beads. The beads have an opportunity to settle in the next 45 minutes, then the measurement is carried out in the Scintillation Counter. If the substance is capable of inhibiting the enzymatic activity of the PDE4B, less [H3]-AMP is produced during the incubation phase and fewer scintillation events can be measured.

Sequence of PDE4B (Q07343 whole entry, species assumed): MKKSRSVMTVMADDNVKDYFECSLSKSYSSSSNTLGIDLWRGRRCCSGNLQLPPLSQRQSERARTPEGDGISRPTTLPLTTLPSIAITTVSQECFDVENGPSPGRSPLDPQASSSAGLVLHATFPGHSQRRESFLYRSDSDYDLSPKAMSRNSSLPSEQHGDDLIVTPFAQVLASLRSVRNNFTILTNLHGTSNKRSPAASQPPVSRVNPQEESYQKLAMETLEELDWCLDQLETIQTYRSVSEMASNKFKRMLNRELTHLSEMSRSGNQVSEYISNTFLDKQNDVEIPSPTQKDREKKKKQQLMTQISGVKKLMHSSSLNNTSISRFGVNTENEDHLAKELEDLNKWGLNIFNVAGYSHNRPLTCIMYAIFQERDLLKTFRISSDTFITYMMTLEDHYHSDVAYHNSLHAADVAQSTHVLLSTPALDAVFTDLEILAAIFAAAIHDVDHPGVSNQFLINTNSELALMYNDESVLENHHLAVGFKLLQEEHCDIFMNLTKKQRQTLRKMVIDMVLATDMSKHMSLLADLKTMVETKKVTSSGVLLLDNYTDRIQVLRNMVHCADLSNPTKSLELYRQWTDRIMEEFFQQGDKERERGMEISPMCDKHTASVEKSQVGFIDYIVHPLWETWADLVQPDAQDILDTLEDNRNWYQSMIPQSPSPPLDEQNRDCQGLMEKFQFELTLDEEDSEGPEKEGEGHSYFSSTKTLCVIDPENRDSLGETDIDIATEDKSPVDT

SMILES	inhibition at 1 µM
CC(C)[C@H](CO)Nc1nc(N2CCC(c3ccc(Cl)cc3)CC2)nc2c1[S+]([O-])CC2 (stereo partly drawn) [Example 1, (R)-2-{2-[4-(4-chlorophenyl)-piperidin-1-yl]-5-oxo-6,7-dihydro-5H-5λ^4-thieno[3,2-d]pyrimidin-4-ylamino}-3-methylbutan-1-ol]	93%
[O-][S+]1CCc2nc(N3CCC(c4ccc(Cl)cc4)CC3)nc(NC3(CO)CC3)c21 (stereo not shown) [Example 2, (1-{2-[4-(4-Chlorophenyl)-Piperidin-1-Yl]-5-Oxo-6,7-Dihydro-5H-5λ^4-Thieno[3,2-d]Pyrimidin-4-Ylamino}-Cyclopropyl)-Methanol]	94%
CCC[C@H](CO)Nc1nc(N2CCC(c3ccc(Cl)cc3)CC2)nc2c1[S+]([O-])CC2 (stereo partly drawn) [Example 3, (R)-2-{2-[4-(4-chlorophenyl)-piperidin-1-yl]-5-oxo-6,7-dihydro-5H-5λ^4-thieno[3,2-d]pyrimidin-4-ylamino}-pentan-1-ol]	94%
CC(C)(O)[C@H](Nc1nc(N2CCC(c3ccc(Cl)cc3)CC2)nc2c1[S+]([O-])CC2)c1ccc(F)cc1 (stereo partly drawn) [Example 4, (R)-1-{2-[4-(4-chlorophenyl)-piperidin-1-yl]-5-oxo-6,7-dihydro-5H-5λ^4-thieno[3,2-d]pyrimidin-4-ylamino}-1-(4-fluorophenyl)-2-methylpropan-2-ol]	91%
CN1C[C@@H](Nc2nc(N3CCC(c4ccc(Cl)cc4)CC3)nc3c2[S+]([O-])CC3)CCC1=O (stereo partly drawn) [Example 5, (S)-5-{2-[4-(4-chlorophenyl)-piperidin-1-yl]-5-oxo-6,7-dihydro-5H-5λ^4-thieno[3,2-d]pyrimidin-4-ylamino}-1-methylpiperidin-2-one]	94%
[O-][S+]1CCc2nc(N3CCC(c4ccc(Cl)cc4)CC3)nc(NC3CCOCC3)c21 (stereo not shown) [Example 6, {2-[4-(4-chlorophenyl)-piperidin-1-yl]-5-oxo-6,7-dihydro-5H-5λ^4-thieno[3,2-d]pyrimidin-4-yl}-(tetrahydropyran-4-yl)-amine]	94%
Cc1cccc(C2CCN(c3nc4c(c(NC5CCOCC5)n3)[S+]([O-])CC4)CC2)c1 (stereo not shown) [Example 7]	93%
Cc1cccc(C2CCN(c3nc4c(c(NC5(CO)CC5)n3)[S+]([O-])CC4)CC2)c1 (stereo not shown) [Example 8]	93%
[O-][S+]1CCc2nc(N3CCC(c4cccc(F)c4)CC3)nc(NC3(CO)CC3)c21 (stereo not shown) [Example 9]	95%
[O-][S+]1CCc2nc(N3CCC(c4ccc(F)cc4)CC3)nc(NC3CCOCC3)c21 (stereo not shown) [Example 10]	93%
[O-][S+]1CCc2nc(N3CCC(c4ccc(F)cc4)CC3)nc(NC3(CO)CC3)c21 (stereo not shown) [Example 11]	94%
CC(C)[C@H](CO)Nc1nc(N2CCC(c3c[nH]c4ccccc34)CC2)nc2c1[S+]([O-])CC2 (stereo partly shown) [Example 12]	94%
CC(C)[C@H](CO)Nc1nc(N2CCC(c3c[nH]cn3)CC2)nc2c1[S+]([O-])CC2 (stereo partly shown) [Example 13]	71%
CC(C)[C@H](CO)Nc1nc(N2CCC3(CC2)c2ccccc2NC(=O)N3C)nc2c1[S+]([O-])CC2 (stereo partly drawn) [Example 14, (R)-1-(4-(1-Hydroxy-3-Methylbutan-2-Ylamino)-5-Oxo-6,7-Dihydro-5H-5λ^4-Thieno[3,2-d]Pyrimidin-2-Yl)-3′-Methyl-1′H-Spiro[Piperidin-4,4′-Quinazolin]-2′(3′H)-One]	60%
CC(C)[C@H](CO)Nc1nc(N2CCC3(CC2)CN(S(C)(=O)=O)c2ccccc23)nc2c1[S+]([O-])CC2 (stereo partly shown) [Example 15]	67%
CC(C)[C@H](CO)Nc1nc(N2CCC(c3noc4ccccc34)CC2)nc2c1[S+]([O-])CC2 (stereo partly drawn) [Example 16, (R)-2-[2-(4-Benzo[d]Isoxazol-3-Yl-Piperidin-1-Yl)-5-Oxo-6,7-Dihydro-5H-5λ^4-Thieno[3,2-d]Pyrimidin-4-Ylamino]-3-Methylbutan-1-Ol]	96%
CC(C)[C@H](CO)Nc1nc(N2CCC(c3cccc(O)c3)CC2)nc2c1[S+]([O-])CC2 (stereo partly shown) [Example 17]	93%
CC(C)[C@H](CO)Nc1nc(N2CCC(O)(c3cc(F)cc(F)c3)CC2)nc2c1[S+]([O-])CC2 (stereo partly shown) [Example 18]	92%
CC(C)[C@H](CO)Nc1nc(N2CCC(c3ccncc3)CC2)nc2c1[S+]([O-])CC2 (stereo partly drawn) [Example 19, (R)-3-Methyl-2-[5-Oxo-2-(3.4.5.6-Tetrahydro-2H-[4,4′]Bipyridinyl-1-Yl)-6,7-Dihydro-5H-5λ^4-Thieno[3,2-d]Pyrimidin-4-Ylamino]-Butan-1-Ol]	83%
CC(C)[C@H](CO)Nc1nc(N2CCC(c3ccc(C#N)cc3)CC2)nc2c1[S+]([O-])CC2 (stereo partly shown) [Example 20]	94%
CC(C)[C@H](CO)Nc1nc(N2CCC3(CC2)OC(=O)Nc2ccccc23)nc2c1[S+]([O-])CC2 (stereo partly shown) [Example 21]	83%

SMILES	inhibition at 1 µM
CCc1[nH]c2ccc(F)cc2c1C1CCN(c2nc3c(c(N[C@@H](CO)C(C)C)n2)[S+]([O-])CC3)CC1 (stereo partly drawn) [Example 22, (R)-2-{2-[4-(2-Ethyl-5-Fluoro-1H-Indol-3-Yl)-Piperidin-1-Yl]-5-Oxo-6,7-Dihydro-5H-5λ^4-Thieno[3,2-d]Pyrimidin-4-Ylamino}-3-Methylbutan-1-Ol]	86%
Cc1noc(C2CCN(c3nc4c(c(N[C@@H](CO)C(C)C)n3)[S+]([O-])CC4)CC2)n1 (stereo partly shown) [Example 23]	85%
CC(C)[C@H](CO)Nc1nc(N2CCC(c3cccc(Cl)c3)CC2)nc2c1[S+]([O-])CC2 (stereo partly shown) [Example 24]	94%
CC(C)[C@H](CO)Nc1nc(N2CCC(C#N)(c3ccccc3)CC2)nc2c1[S+]([O-])CC2 (stereo partly shown) [Example 25]	90%
[O-][S+]1CCc2nc(N3CCC(c4c[nH]c5ccccc45)CC3)nc(NC3(CO)CC3)c21 (stereo not shown) [Example 26]	96%
[O-][S+]1CCc2nc(N3CCC(c4c[nH]cn4)CC3)nc(NC3(CO)CC3)c21 (stereo not shown) [Example 27]	87%
CN1C(=O)Nc2ccccc2C12CCN(c1nc3c(c(NC4(CO)CC4)n1)[S+]([O-])CC3)CC2 (stereo not shown) [Example 28, 1-(4-(1-Hydroxymethylcyclopropylamino)-5-Oxo-6,7-Dihydro-5H-5λ^4-Thieno[3,2-d]Pyrimidin-2-Yl)-3′-Methyl-1′H-Spiro[Piperidin-4,4′-Quinazolin]-2′(3′H)-One]	85%
CCOC(=O)c1ccc2c(C3CCN(c4nc5c(c(NC6(CO)CC6)n4)[S+]([O-])CC5)CC3)c[nH]c2c1 (stereo not shown) [Example 29, ethyl 3-{1-[4-(1-hydroxymethylcyclopropylamino)-5-oxo-6,7-dihydro-5H-5λ^4-thieno[3,2-d]pyrimidin-2-yl]-piperidin-4-yl}-1H-indole-6-carboxylate]	97%
CS(=O)(=O)N1CC2(CCN(c3nc4c(c(NC5(CO)CC5)n3)[S+]([O-])CC4)CC2)c2ccccc21 (stereo not shown) [Example 30]	89%
[O-][S+]1CCc2nc(N3CCC(c4noc5ccccc45)CC3)nc(NC3(CO)CC3)c21 (stereo not shown) [Example 31]	97%
[O-][S+]1CCc2nc(N3CCC(c4cccc(O)c4)CC3)nc(NC3(CO)CC3)c21 (stereo not shown) [Example 32]	96%
[O-][S+]1CCc2nc(N3CCC(O)(c4cc(F)cc(F)c4)CC3)nc(NC3(CO)CC3)c21 (stereo not shown) [Example 33]	95%
[O-][S+]1CCc2nc(N3CCC(c4ccncc4)CC3)nc(NC3(CO)CC3)c21 (stereo not shown) [Example 34]	92%
N#Cc1ccc(C2CCN(c3nc4c(c(NC5(CO)CC5)n3)[S+]([O-])CC4)CC2)cc1 (stereo not shown) [Example 35]	95%
O=C1Nc2ccccc2C2(CCN(c3nc4c(c(NC5(CO)CC5)n3)[S+]([O-])CC4)CC2)O1 (stereo not shown) [Example 36]	92%
CCc1[nH]c2ccc(F)cc2c1C1CCN(c2nc3c(c(NC4(CO)CC4)n2)[S+]([O-])CC3)CC1 (stereo not shown) [Example 37, (1-{2-[4-(2-Ethyl-5-Fluoro-1H-Indol-3-Yl)-Piperidin-1-Yl]-5-Oxo-6,7-Dihydro-5H-5λ^4-Thieno[3,2-d]Pyrimidin-4-Ylamino}-Cyclopropyl)-Methanol]	92%
Cc1noc(C2CCN(c3nc4c(c(NC5(CO)CC5)n3)[S+]([O-])CC4)CC2)n1 (stereo not shown) [Example 38]	92%
[O-][S+]1CCc2nc(N3CCC(c4cccc(Cl)c4)CC3)nc(NC3(CO)CC3)c21 (stereo not shown) [Example 39]	96%
N#CC1(c2ccccc2)CCN(c2nc3c(c(NC4(CO)CC4)n2)[S+]([O-])CC3)CC1 (stereo not shown) [Example 40]	94%
CN1C[C@@H](Nc2nc(N3CCC(c4c[nH]c5ccccc45)CC3)nc3c2[S+]([O-])CC3)CCC1=O (stereo partly shown) [Example 41]	97%
CN1C[C@@H](Nc2nc(N3CCC(c4c[nH]cn4)CC3)nc3c2[S+]([O-])CC3)CCC1=O (stereo partly shown) [Example 42]	95%

Same assay, conditions: test substance 1 μM; one-hour incubation with [H3]-cAMP at 30° C.

SMILES	inhibition at 1 µM
NC1CC1Nc1nc(N2CCC(c3ccc(Cl)cc3)CC2)nc2c1[S+]([O-])CC2 (single isomer, unassigned) [Example 232, N-{2-[4-(4-Chlorophenyl)-Piperidin-1-Yl]-5-Oxo-6,7-Dihydro-5H-5λ^4-Thieno[3,2-d]Pyrimidin-4-Yl}-Cyclopropan-1,2-Diamine]	84%

From patent US8754073B2, “Substituted piperazino-dihydrothienopyrimidines” (Boehringer Ingelheim International GmbH, priority 2007, dated 2014)
